Where two headings read alike, the source gives them in different places.
What was measured:
[1] = tested on: A549 human non-small cell lung cancer (NSCLC) cell line; experiment: Neutral red (NR) uptake cytotoxicity assay, A549; type: cell-based; details: for IC50: neutral red assay, 72 h incubation; for selectivity index A549: IC50 in CRL2120 normal fibroblasts divided by IC50 in A549
Description: (§1) Six human cancer cell lines and one normal cell line were used in this study. They included A549 human non-small cell lung cancer (NSCLC) cell line, obtained from the Institute for Fermentation, Osaka (IFO, Japan) and provided by Prof. Dr. Tansu Koparal (Anadolu University, Eskisehir, Turkey), SPC212 human mesothelioma cell line obtained from American Type Culture Collection (ATCC) and provided by Dr. Asuman Demiroğlu Zergeroğlu (Gebze Technical University, Kocaeli, Turkey), DLD-1 colorectal adenocarcinoma cell lines obtained from ATCC (CCL-221), Caco2 colorectal adenocarcinoma cells (ATCC, HTB-37) obtained from the ŞAP Institute of Turkey (Ankara), HepG2 hepatocarcinoma cells (ATCC, HB-8065) and MCF-7 breast adenocarcinoma cells (ATCC, HTB-22) were provided by Prof. Dr. Tansu Koparal (Anadolu University, Eskisehir, Turkey). The normal CRL2120 human skin fibroblasts were obtained from ATCC [CCD1094Sk (ATCC, CRL-2120)]. The cells were maintained as a monolayer in DMEM medium (Sigma-aldrich, Munich, Germany) medium supplemented with 10% fetal calf serum and 1% penicillin (100 U/mL)-streptomycin (100 μg/mL) in a humidified 5% CO2 atmosphere at 37 °C.
(§2) The cytotoxicity of samples was performed by NR uptake assay as previously described. This method is based on the ability of viable cells to incorporate and bind the supravital dye NR in the lysosomes. […] Briefly, cells were detached by treatment with 0.25% trypsin/EDTA (Invitrogen) and an aliquot of 1 × 10^4 cells was placed in each well of a 96-well cell culture plate (Thermo Scientific, Germany) in a total volume of 200 μL. The cells were allowed to attach overnight and subsequently treated with different concentrations of the 14 compounds. Each of the studied samples was immediately added in varying concentrations in additional 100 μL of culture medium to obtain a total volume of 200 μL/well. After 72 h incubation in humidified 5% CO2 atmosphere at 37 °C, the medium was removed and 200 μL fresh medium containing 50 μg/mL NR was added to each well and incubation continued for an additional 3 h at 37 °C in 5% CO2 atmosphere. The dye medium was then removed and each well was then washed rapidly with 200 μL phosphate buffer saline (PBS) followed by addition of 200 μL of acetic acid-water-ethanol in water (1:49:50). The plates were kept for 15 min at room temperature to extract the dye and then shaken for a few minutes on a GFL 3012 shaker (Gesellschaft für Labortechnik mbH, Burgwedel, Germany). Absorbance was measured on ELx 808 Ultra Microplate Reader (Biotek) equipped with a 540 nm filter. Each assay was done at least three times, with three replicates each. The viability was evaluated based on a comparison with untreated cells. The IC50 values represent the sample’s concentrations required to inhibit 50% of cell proliferation and were calculated from a calibration curve by linear regression using Microsoft Excel.

[2] = tested on: SPC212 human mesothelioma cell line; experiment: Neutral red (NR) uptake cytotoxicity assay, SPC212; type: cell-based; details: for IC50: neutral red assay, 72 h incubation, read-out: IC50 SPC212; for selectivity index SPC212: IC50 in CRL2120 normal fibroblasts divided by IC50 in SPC212
Description: as §1
as §2, with “lysosomes. The procedure is cheaper and more sensitive than other cytotoxicity tests.” for “lysosomes.”

[3] = tested on: DLD-1 colorectal adenocarcinoma cell lines; experiment: Neutral red (NR) uptake cytotoxicity assay, DLD-1; type: cell-based, human; details: for IC50: Homo sapiens, DLD-1, neutral red assay, 72 h incubation, read-out: IC50 DLD-1; for selectivity index DLD-1: IC50 in CRL2120 normal fibroblasts divided by IC50 in DLD-1
Description: as §1
as §2, with “lysosomes. The procedure is cheaper and more sensitive than other cytotoxicity tests.” for “lysosomes.”

[4] = Neutral red (NR) uptake cytotoxicity assay, Caco-2; type: cell-based, human; details: human; IC50 in CRL2120 normal fibroblasts divided by IC50 in Caco-2; read-out: selectivity index Caco-2 (converted)
Description: as §1
as §2, with “lysosomes. The procedure is cheaper and more sensitive than other cytotoxicity tests.” for “lysosomes.”

[5] = tested on: Caco2 colorectal adenocarcinoma cells; experiment: Neutral red (NR) uptake cytotoxicity assay, Caco-2; type: cell-based, human; details: Homo sapiens, Caco-2; neutral red assay, 72 h incubation
Description: as §1
as §2, with “lysosomes. The procedure is cheaper and more sensitive than other cytotoxicity tests.” for “lysosomes.”

[6] = tested on: MCF-7 breast adenocarcinoma cells; experiment: Neutral red (NR) uptake cytotoxicity assay, MCF-7; type: cell-based, human; details: for IC50: neutral red assay, 72 h incubation, read-out: IC50 MCF-7; for selectivity index MCF-7: IC50 in CRL2120 normal fibroblasts divided by IC50 in MCF-7
Description: as §1
as §2, with “lysosomes. The procedure is cheaper and more sensitive than other cytotoxicity tests.” for “lysosomes.”

[7] = tested on: HepG2 hepatocarcinoma cells; experiment: Neutral red (NR) uptake cytotoxicity assay, HepG2; type: cell-based, human; details: for IC50: Homo sapiens, HepG2, neutral red assay, 72 h incubation, read-out: IC50 HepG2; for selectivity index HepG2: IC50 in CRL2120 normal fibroblasts divided by IC50 in HepG2
Description: as §1
as §2, with “lysosomes. The procedure is cheaper and more sensitive than other cytotoxicity tests.” for “lysosomes.”

[8] = tested on: normal CRL2120 human skin fibroblasts; experiment: Neutral red (NR) uptake cytotoxicity assay, normal CRL2120 fibroblasts; type: cell-based; details: Skin fibroblast, 72 h incubation
Description: as §1
as §2, with “lysosomes. The procedure is cheaper and more sensitive than other cytotoxicity tests.” for “lysosomes.”

[9] = tested on: six tested cancer cell lines (A549, SPC212, DLD-1, Caco-2, MCF-7, HepG2); experiment: Neutral red uptake assay, statements over the six tested cancer cell lines; type: cell-based, human; details: for IC50: Homo sapiens, bound valid for all six cancer cell lines, neutral red assay; for tested cancer cell lines in which recordable IC50 values were obtained: out of six cancer cell lines
Description: as §1
as §2, with “lysosomes. The procedure is cheaper and more sensitive than other cytotoxicity tests.” for “lysosomes.”

IC50 [9] | tested cancer cell lines in which recordable IC50 values were obtained [9] | Compound | IC50 ([1]; Homo sapiens, A549, 72 h) | selectivity index A549 [1] | IC50 ([2]; Homo sapiens, 72 h) | selectivity index SPC212 [2] | IC50 [3] | selectivity index DLD-1 [3] | selectivity ratio at 72 h [4] | IC50 [5] | IC50 ([6]; Homo sapiens, MCF7, 72 h) | selectivity index MCF-7 [6] | IC50 [6] | IC50 [7] | selectivity index HepG2 [7] | IC50 [8] | IC50 [1] | selectivity indexes (CRL2120 vs carcinoma cells), lower bound over the cancer cell lines ([9]; IC50 CRL2120 / IC50 cancer cell line) | IC50 [2]
< 100 µM |  | CCCCCCCCCCCC1=C(O)C(=O)C=C(OC)C1=O [Compound 11, 2-hydroxy-5-methoxy-3-undecyl-1,4-benzoquinone] | 50.3 ± 2.6 µM | 0.88 | 38.3 ± 3.23 µM | 1.15 | 45.4 ± 4.89 µM | 0.97 | 1.14 | 38.9 ± 2.35 µM | 22.6 µM | 1.96 | 22.6 ± 1.57 µM | 61.3 ± 5.53 µM | 0.72 | 44.2 ± 0.2 µM |  |  | 
< 100 µM |  | Cc1cc(O)c2c(c1)C(=O)c1cc(O)cc(O)c1C2=O [Compound 2, emodin] | 99.3 µM | > 2.23 | 99.3 ± 8.46 µM | > 1.49 | 77.3 ± 8.77 µM | > 1.92 | > 2.01 | 73.6 ± 3.52 µM | 37.6 ± 2.59 µM | > 3.94 |  | 71.7 ± 4.52 µM | > 2.07 | > 148 µM | 66.3 ± 6.19 µM | above 1.49 | 
 | 4/6 | COC1=CC(=O)C(O)=C(CCCCCCCC=CCCCCCCCC2=C(O)C(=O)C(C)=C(O)C2=O)C1=O [Compound 14, ardisiaquinone B] | 21.7 ± 1.5 µM | 3.29 | 3.14 ± 0.78 µM | 22.72 | 114 ± 3.68 µM | 0.62 |  | > 123 µM | > 123 µM |  |  | 115 ± 4.29 µM | 0.62 | 71.3 ± 5.23 µM |  |  | 
< 100 µM |  | CCCCCCCCCCCCCCCC1=C(O)C(=O)C=C(O)C1=O [Compound 10, 2,5-dihydroxy-3-pentadecyl-2,5-cyclohexadiene-1,4-dione] | 43.3 ± 2.72 µM | > 2.87 | < 10 µM | > 14.81 | 51.2 ± 5.54 µM | > 2.43 | > 4.47 | 27.8 ± 2.03 µM | 30.4 ± 8.64 µM | > 4.09 |  | 48.4 ± 3.73 µM | > 2.57 | > 124 µM |  |  | 8.39 ± 0.48 µM
 | 5/6 | CCCCCCCC1=C(O)C(=O)C=C(O)C1=O [Compound 8, 2,5-dihydroxy-3-heptyl-2,5-cyclohexadiene-1,4-dione] | 108 ± 17.9 µM |  | < 10 µM |  | > 168 µM |  | 2.27 | 63.9 ± 5.97 µM | 38.8 ± 3.33 µM | 3.16 |  | 94.2 ± 2.7 µM | 1.16 | 117 ± 1.22 µM |  |  | 

Reference: publication PMC5175396, “Cytotoxicity of Plumbagin, Rapanone and 12 other naturally occurring Quinones from Kenyan Flora towards human carcinoma cells” (BMC Pharmacology & Toxicology, 2016)
